From patent US20200017496A1 (priority 2017, published 2020)

Columns and labels:
Test in all cases: MIC of compounds alone and combined with antibacterials, broth microdilution (CLSI)
Assay type in all cases: cell-based
[1] = system: Providencia stuartii (PST) isolates; conditions: alone
Procedure, shortened: (§1)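 First, log-phase suspensions are brought to a final 5·10^5 CFU/mL in cation-adjusted Mueller-Hinton broth. Then plates with compound, antibacterial, or both incubate 16-20 h at 35° C under ambient air. Finally, visual inspection gives the lowest growth-preventing concentration for each agent.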

[2] = system: Escherichia coli (ECO) isolates; conditions: alone
Procedure, shortened: as §1

[3] = system: Enterobacter cloacae (ECL) isolates
Procedure, shortened: as §1

[4] = system: Morganella morganii (MMO) isolates; conditions: alone
Procedure, shortened: as §1

[5] = system: Citrobacter koseri (CKR) isolates; conditions: alone
Procedure, shortened: as §1

`NC(=O)[C@@H]1CC[C@@H]2CN1C(=O)N2OC(F)(F)C(=O)[O-].[Na+]` [EA1] was tested, and the MIC ([1]; PST UFR94) was over 32 µg/mL, the MIC ([1]; PST UFR95) was over 32 µg/mL and the MIC ([1]; PST UFR235) was 16 µg/mL. It also gave an MIC ([2]; ECO 4133) of 16 µg/mL, an MIC ([2]; ECO 5302) of 16 µg/mL and an MIC ([2]; ECO 131119) of 32 µg/mL. For the same compound, the MIC ([2]; ECO 180070) was over 32 µg/mL, the MIC ([2]; ECO 190314) was over 32 µg/mL and the MIC ([2]; ECO 190317) was 16 µg/mL. For the same compound, the MIC ([2]; ECO 190457) was 16 µg/mL, the MIC ([2]; ECO 190549) was 16 µg/mL and the MIC ([2]; ECO 200159) was 32 µg/mL. It also gave an MIC ([2]; ECO 200259) of 16 µg/mL, an MIC ([2]; ECO 200344) of over 32 µg/mL and an MIC ([2]; ECO 260096) of 16 µg/mL. The MIC ([2]; ECO 260304) was 32 µg/mL, the MIC ([2]; ECO 260508) was 16 µg/mL and the MIC ([2]; ECO RGN238) was over 32 µg/mL. For the same compound, the MIC ([2]; ECO UFR15) was 32 µg/mL, the MIC ([2]; ECO UFR16) was 16 µg/mL and the MIC ([2]; ECO UFR17) was 16 µg/mL. For the same compound, the MIC ([2]; ECO UFR18) was 16 µg/mL, the MIC ([2]; ECO UFR19) was 16 µg/mL and the MIC ([2]; ECO UFR20) was 64 µg/mL. The MIC ([2]; ECO UFR61O) was 32 µg/mL, the MIC ([2]; ECO UFR62) was 16 µg/mL and the MIC ([2]; ECO UFR74) was over 32 µg/mL. The MIC ([2]; ECO UFR86) was 16 µg/mL, the MIC ([2]; ECO UFR174) was 8 µg/mL and the MIC ([2]; ECO UFR175) was 32 µg/mL. It also gave an MIC ([2]; ECO UFR176) of 32 µg/mL, an MIC ([2]; ECO UFR184) of 8 µg/mL and an MIC ([2]; ECO UFR185) of 16 µg/mL. It also gave an MIC ([2]; ECO UFR186) of over 32 µg/mL, an MIC ([2]; ECO UFR187) of over 32 µg/mL and an MIC ([2]; ECO UFR189) of 16 µg/mL. For the same compound, the MIC ([2]; ECO UFR190) was 16 µg/mL, the MIC ([2]; ECO UFR191) was 32 µg/mL and the MIC ([2]; ECO UFR207) was 32 µg/mL. For the same compound, the MIC ([2]; ECO UFR208) was over 32 µg/mL, the MIC ([2]; ECO UFR209) was 16 µg/mL and the MIC ([2]; ECO UFR210) was 16 µg/mL. For the same compound, the MIC ([2]; ECO UFR211) was over 32 µg/mL, the MIC ([2]; ECO UFR212) was 16 µg/mL and the MIC ([2]; ECO UFR218) was 16 µg/mL. The MIC ([3]; ECL 2185D, alone) was 16 µg/mL, the MIC ([3]; ECL 190310, alone) was 32 µg/mL and the MIC ([3]; ECL 190408, alone) was over 128 µg/mL. It also gave an MIC ([3]; ECL 200138, alone) of over 32 µg/mL, an MIC ([3]; ECL 200322, alone) of 16 µg/mL and an MIC ([3]; ECL 260033, alone) of 16 µg/mL. For the same compound, the MIC ([3]; ECL 260253, alone) was over 32 µg/mL, the MIC ([3]; ECL 260323, alone) was over 32 µg/mL and the MIC ([3]; ECL 260508, alone) was over 32 µg/mL. For the same compound, the MIC ([3]; ECL NEM146383, alone) was 32 µg/mL, the MIC ([3]; ECL P99, alone) was 16 µg/mL and the MIC ([3]; ECL UFR12, alone) was 32 µg/mL. It also gave an MIC ([3]; ECL UFR13, alone) of 32 µg/mL, an MIC ([3]; ECL UFR14, alone) of over 32 µg/mL and an MIC ([3]; ECL UFR60, alone) of 32 µg/mL. The MIC ([3]; ECL UFR70, alone) was 32 µg/mL, the MIC ([3]; ECL UFR84, alone) was over 32 µg/mL and the MIC ([3]; ECL UFR85, alone) was over 32 µg/mL. For the same compound, the MIC ([3]; ECL UFR194, alone) was over 32 µg/mL, the MIC ([3]; ECL UFR200, alone) was over 32 µg/mL and the MIC ([3]; strain ECL UFR195, compound alone) was over 32 µg/mL. For the same compound, the MIC ([3]; strain ECL UFR196, compound alone) was over 32 µg/mL, the MIC ([3]; strain ECL UFR197, compound alone) was 16 µg/mL and the MIC ([3]; strain ECL UFR198, compound alone) was over 32 µg/mL. It also gave an MIC ([4]; MMO 200321) of over 32 µg/mL, an MIC ([4]; MMO UFR144) of over 32 µg/mL and an MIC ([4]; MMO UFR240) of over 32 µg/mL. The MIC ([4]; MMO UFR241) was over 32 µg/mL, the MIC ([4]; MMO UFR242) was 128 µg/mL and the MIC ([4]; MMO UFR243) was over 32 µg/mL. It also gave an MIC ([4]; MMO UFR244) of over 32 µg/mL, an MIC ([4]; MMO UFR245) of over 32 µg/mL and an MIC ([4]; MMO UFR246) of over 32 µg/mL. The MIC ([4]; MMO UFR247) was 64 µg/mL, the MIC ([5]; CKO ROU) was 16 µg/mL and the MIC ([5]; CKO UFR149) was 16 µg/mL. The MIC ([5]; CKO UFR150) was over 32 µg/mL.
